Data set [1] has as its system Helicobacter pylori. As to the kind of experiment: Antibacterial activity against Helicobacter pylori CIP 103995 incubated for 72 hrs under microaerophilic conditions by broth microdilution method. It counts as functional. Particulars: CIP 103995, 72 h.
The test system of data set [2] is Staphylococcus aureus. As to the kind of experiment: Antibacterial activity against Staphylococcus aureus ATCC 25923 incubated for 24 hrs by broth microdilution method. The data set is classed as functional. Particulars: ATCC 25923, 24 h.
For data set [3], the system named is Escherichia coli. Briefly: Antibacterial activity against Escherichia coli ATCC 25922 incubated for 24 hrs by broth microdilution method. The data set is classed as functional. Particulars: ATCC 25922, 24 h. A general note: Dilution methods test growth across graded concentrations, often in twofold steps.
The test system of data set [4] is Pseudomonas aeruginosa. Briefly: Antibacterial activity against Pseudomonas aeruginosa ATCC 27853 incubated for 24 hrs by broth microdilution method. Particulars: ATCC 27853, 24 h. The data set is classed as functional.
The test system of data set [5] is Plasmodium falciparum. Briefly: Antiplasmodial activity against chloroquine-resistant Plasmodium falciparum FcB1 infected in RBC (unknown origin) incubated for 48 hrs by SYBR green dye based fluorescence analysis. It counts as functional, organism-based. Particulars: FcB1, 48 h.
The test system of data set [6] is Leishmania infantum. Briefly: Antileishmanial activity against Leishmania infantum MHOM/MA/67/ITMAP-263 axenic amastigotes assessed as inhibition of parasitic metabolic activity incubated for 48 hrs by steady Glow reagent based luminescence assay. The following applies: MHOM/MA/67/ITMAP-263, 48 h. It counts as functional, organism-based.
Data set [7] is described as follows: Cytotoxicity against mouse RAW264.7 cells assessed as reduction in cell viability incubated for 48 hrs by MTT assay. It counts as cell-based.

≈ marks a conversion by molar mass, not a printed value. A value given as a limit tells only on which side of the number the result lay.

The text below walks through data of ChEMBL document CHEMBL4414669, “Structural Characterization and Anti-infective Activity of 9,10-Seco-29-norcycloartane Glycosides Isolated from the Flowers of the Peruvian Medicinal Plant Cordia lutea” (J Nat Prod, 2019).

What is called MIC is the lowest concentration that inhibits growth of the organism. Lower therefore signals a more susceptible organism. The term IC50 denotes the concentration that gives 50% inhibition. Broadly, the CC50 is the concentration at which the toxic effect on the cells reaches its halfway point.

`CC[C@H]1OC(=O)[C@H](C)[C@@H](O[C@H]2C[C@@](C)(OC)[C@@H](O)[C@H](C)O2)[C@H](C)[C@@H](O[C@@H]2O[C@H](C)C[C@H](N(C)C)[C@H]2O)[C@](C)(OC)C[C@@H](C)C(=O)[C@H](C)[C@@H](O)[C@]1(C)O` [CLARITHROMYCIN] returned a minimal inhibitory concentration (MIC) in data set [1] of 0.01 µg/mL (≈ 0.0134 µM).
Take `C/C=C(\C(C)C)[C@H](O)C[C@@H](C)[C@H]1CC[C@@]2(C)[C@@H]3CC[C@H]4[C@H](C)[C@@H](O[C@@H]5OC[C@H](O)[C@H](O)[C@H]5O)CC[C@]4(O)CC3=CC[C@]12C`: the MIC in data set [1] was 15.6 µg/mL (≈ 25.8 µM); in data set [2] it was 31.3 µg/mL (≈ 51.7 µM); in data set [3], over 125 µg/mL; in data set [4] it was over 125 µg/mL. The IC50 worked out at 53.7 µM in data set [5] and 6.3 µM in data set [6]. The cytotoxic concentration (CC50) at 48 h in data set [7] stood at 19.6 µM.
For the compound `C=C(C(C)C)[C@H](O)C[C@@H](C)[C@H]1CC[C@@]2(C)[C@@H]3CC[C@H]4[C@H](C)[C@@H](O[C@@H]5O[C@@H](C)[C@H](O)[C@@H](O)[C@H]5O)CC[C@]4(O)CC3=CC[C@]12C`, the MIC in data set [1] was 31.3 µg/mL (≈ 51.7 µM); in data set [2], over 125 µg/mL; in data set [3], over 125 µg/mL; in data set [4] it was over 125 µg/mL. Further, the concentration for half-maximal inhibition (IC50) in data set [5] turned out to be 55 µM; in data set [6], 6.7 µM. The CC50 at 48 h in data set [7] is 35.1 µM.
As for `C[C@@H]1[C@H](O)[C@@H](C)/C=C/C=C/C=C/C=C/C=C/C=C/C=C/[C@H](O[C@@H]2O[C@H](C)[C@@H](O)[C@H](N)[C@@H]2O)C[C@@H]2O[C@](O)(C[C@@H](O)C[C@@H](O)[C@H](O)CC[C@@H](O)C[C@@H](O)CC(=O)O[C@H]1C)C[C@H](O)[C@H]2C(=O)O` [AMPHOTERICIN B], the IC50 in data set [6] came to 0.07 µM.
Regarding `C=C(C(C)C)[C@H](O)C[C@@H](C)[C@H]1CC[C@@]2(C)[C@@H]3CC[C@H]4[C@H](C)[C@@H](O[C@@H]5OC[C@H](O)[C@H](O)[C@H]5O)CC[C@]4(O)CC3=CC[C@]12C`, the MIC is 15.6 µg/mL (≈ 26.4 µM) in data set [1], 31.3 µg/mL (≈ 53 µM) in data set [2], over 125 µg/mL in data set [3] and over 125 µg/mL in data set [4]. Also, the IC50 in data set [5] worked out at 52.4 µM; in data set [6], 7.7 µM. In addition, the CC50 at 48 h in data set [7] was found to be 26.6 µM.
In the case of `COc1cccc2c1C(=O)c1c(O)c3c(c(O)c1C2=O)C[C@@](O)(C(=O)CO)C[C@@H]3O[C@H]1C[C@H](N)[C@H](O)[C@H](C)O1` [DOXORUBICIN], the CC50 at 48 h in data set [7] turned out to be 0.8 µM.
With `C/C=C(\C(C)C)[C@H](O)C[C@@H](C)[C@H]1CC[C@@]2(C)[C@@H]3CC[C@H]4[C@H](C)[C@@H](O[C@@H]5O[C@@H](C)[C@H](O)[C@@H](O)[C@H]5O)CC[C@]4(O)CC3=CC[C@]12C`, the MIC is 31.3 µg/mL (≈ 50.6 µM) in data set [1], over 125 µg/mL in data set [2], over 125 µg/mL in data set [3] and over 125 µg/mL in data set [4]. In addition, the IC50 is 61.3 µM in data set [5] and 5.2 µM in data set [6]. Also, the cytotoxic concentration (CC50) at 48 h in data set [7] was determined as 21.9 µM.
Take `C=C(C(C)C)[C@H](O)C[C@@H](C)[C@H]1CC[C@@]2(C)[C@@H]3CC[C@H]4[C@H](C)[C@@H](O[C@@H]5OC[C@@H](O)[C@H](O)[C@H]5O)CC[C@]4(O)CC3=CC[C@]12C`: the minimal inhibitory concentration (MIC) in data set [1] was 15.6 µg/mL (≈ 26.4 µM); in data set [2], 62.5 µg/mL (≈ 106 µM); in data set [3] it was over 125 µg/mL; in data set [4] it was over 125 µg/mL. Also, the results for the IC50 in data set [5] and in data set [6] were over 150 µM and 5 µM, respectively. Besides, the CC50 at 48 h in data set [7] came to 24.2 µM.
Turning to `CN(C)[C@@H]1C(O)=C(C(N)=O)C(=O)[C@@]2(O)C(O)=C3C(=O)c4c(O)cccc4[C@@](C)(O)[C@H]3C[C@@H]12` [TETRACYCLINE], the MIC was found to be 0.5 µg/mL (≈ 1.13 µM) in data set [2], 2 µg/mL (≈ 4.5 µM) in data set [3] and 16 µg/mL (≈ 36 µM) in data set [4].
Turning to `C/C=C(\C(C)C)[C@H](O)C[C@@H](C)[C@H]1CC[C@@]2(C)[C@@H]3CC[C@H]4[C@H](C)[C@@H](O[C@@H]5OC[C@@H](O)[C@H](O)[C@H]5O)CC[C@]4(O)CC3=CC[C@]12C`, the minimum inhibitory concentration (MIC) in data set [1] is 15.6 µg/mL (≈ 25.8 µM); in data set [2], over 125 µg/mL; in data set [3], over 125 µg/mL; in data set [4] it was over 125 µg/mL. Further, the IC50 in data set [5] amounted to 46.9 µM; in data set [6], 5.2 µM. Further, the cytotoxic concentration (CC50) at 48 h in data set [7] was 30.3 µM.
